These compounds were tested against T1, SMYD2 (Homo sapiens, UniProt Q9NRG4) (assay: SMYD2 Biochemical Assay (3H-SAM, biotinylated peptide substrate, Flashplate)). Settings: IC50 values are an average of n = 1 to n = 50; read-out: SMYD2 Biochem IC50 (μM)*.
T1 construct: Full length SMYD2 (NP 064582.2) was cloned; His6 (N, cleaved yes); FLAG (N); made in house; host or cells: Sf9 insect cells
T1 sequence (Q9NRG4 whole entry): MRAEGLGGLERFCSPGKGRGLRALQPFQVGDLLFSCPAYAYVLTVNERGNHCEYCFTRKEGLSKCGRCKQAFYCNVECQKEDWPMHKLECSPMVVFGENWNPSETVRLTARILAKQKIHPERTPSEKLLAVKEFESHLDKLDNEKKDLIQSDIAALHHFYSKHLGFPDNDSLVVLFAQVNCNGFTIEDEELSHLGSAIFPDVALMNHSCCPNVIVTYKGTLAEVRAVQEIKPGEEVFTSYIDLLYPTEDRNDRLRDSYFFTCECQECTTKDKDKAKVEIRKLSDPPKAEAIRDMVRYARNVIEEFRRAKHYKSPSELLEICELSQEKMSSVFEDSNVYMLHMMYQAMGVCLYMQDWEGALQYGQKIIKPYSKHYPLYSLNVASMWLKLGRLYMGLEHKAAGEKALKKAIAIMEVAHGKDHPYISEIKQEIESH
Source text: S-adenosylmethionine (SAM), S-adenosylhomocysteine (SAH), bicine, Tween20, dimethylsulfoxide (DMSO), bovine skin gelatin (BSG), and Tris(2-carboxyethyl)phosphine hydrochloride (TCEP) were purchased from Sigma-Aldrich at the highest level of purity possible. ^3H-SAM was purchase from American Radiolabeled Chemicals with a specific activity of 80 Ci/mmol. 384-well streptavidin Flashplates were purchased from PerkinElmer.
Peptide was synthesized with a N-terminal linker-affinity tag motif and a C-terminal amide cap by 21st Century Biochemicals. The peptide was high-performance liquid chromatography (HPLC) purified to greater than 95% purity and confirmed by liquid chromatography mass spectrometry (LC-MS). The sequence was […](K-Biot)-amide. (SEQ ID No: 3)
Full length SMYD2 (NP 064582.2) was cloned into a pFastbac-Htb-lic vector with an N-terminal His6 tag and FLAG tag, preceded by a TEV protease cleavage site. The protein was expressed in Sf9 insect cells. Cells were resuspended in lysis buffer (25 mM HEPES-NaOH, pH 7.5, 200 mM NaCl, 5% glycerol, and 5 mM β-ME) and lysed by sonication. The protein was purified by Ni-NTA (Qiagen), followed by TEV cleavage to remove the His6 tag, subtractive Ni-NTA (Qiagen), and gel filtration chromatography using an […] (GE Healthcare). Purified protein was stored in 20 mM Tris-HCl, pH 8.0, 100 mM NaCl, and 1 mM TCEP.
The assays were all performed in a buffer consisting of 20 mM Bicine (pH=7.6), 1 mM TCEP, 0.005% Bovine Skin Gelatin, and 0.002% Tween20, prepared on the day of use. Compounds in 100% DMSO (1 ul) were spotted into a polypropylene 384-well V-bottom plates (Greiner) using a Platemate Plus outfitted with a 384-channel head (Thermo Scientific). DMSO (1 ul) was added to Columns 11, 12, 23, 24, rows A-H for the maximum signal control and 1 ul of SAH, a known product and inhibitor of SMYD2, was added to columns 11, 12, 23, 24, rows I-P for the minimum signal control. A cocktail (40 ul) containing the SMYD2 enzyme was added by Multidrop Combi (Thermo-Fisher). The compounds were allowed to incubate with SMYD2 for 30 min at room temperature, then a cocktail (10 ul) containing ^3H-SAM and peptide was added to initiate the reaction (final volume=51 ul). The final concentrations of the components were as follows: SMYD2 was 1.5 nM, ^3H-SAM was 10 nM, and peptide was 60 nM, SAH in the minimum signal control wells was 1000 uM, and the DMSO concentration was 2%. The assays were stopped by the addition of non-radioactive SAM (10 ul) to a final concentration of 600 uM, which dilutes the ^3H-SAM to a level where its incorporation into the peptide substrate is no longer detectable. 50 ul of the reaction in the 384-well polypropylene plate was then transferred to a 384-well Flashplate and the biotinylated peptides were allowed to bind to the streptavidin surface for at least 1 hour before being washed three times with 0.1% Tween20 in a Biotek ELx405 plate washer. The plates were then read in a PerkinElmer TopCount plate reader to measure the quantity of ^3H-labeled peptide bound to the Flashplate surface, measured as disintegrations per minute (dpm) or alternatively, referred to as counts per minute (cpm).
Where dpm=disintegrations per minute, cmpd=signal in assay well, and min and max are the respective minimum and maximum signal controls.
Where top and bottom are the normally allowed to float, but may be fixed at 100 or 0 respectively in a 3-parameter fit. The Hill Coefficient normally allowed to float but may also be fixed at 1 in a 3-parameter fit. I is the compound concentration.
SMYD2 biochemical assay data for representative Compounds of the Disclosure are presented in Tables 1-3 in the column titled “SMYD2 Biochem IC50 (μM).”
`C[C@H]1CN(Cc2ccccc2)C[C@H]1NC(=O)c1cc(C2CC2)on1` (racemic) [compound 116, (±)-cis-N-([1-benzyl-4-methylpyrrolidin-3-yl)-5-cyclopropyl-1,2-oxazole-3-carboxamide] showed an IC50 of 4.2 µM.
`C[C@@H]1CN(Cc2ccccc2)C[C@H]1NC(=O)c1cc(C2CC2)on1` (racemic) [compound 117, (±)-trans-N-(1-benzyl-4-methylpyrrolidin-3-yl)-5-cyclopropyl-1,2-oxazole-3-carboxamide] gave an IC50 greater than 50 µM.
In the case of `C[C@H]1CN(Cc2cccnc2)C[C@H]1NC(=O)c1cc(C2CC2)on1` (racemic) [compound 120, (±)-cis-5-cyclopropyl-N-[4-methyl-1-(pyridin-3-ylmethyl)pyrrolidin-3-yl]-1,2-oxazole-3-carboxamide], the IC50 is reported as 10.6 µM.
With `C[C@H]1CN(Cc2ccccn2)C[C@H]1NC(=O)c1cc(C2CC2)on1` (racemic) [compound 121, (±)-cis-5-cyclopropyl-N-[4-methyl-1-(pyridin-2-ylmethyl)pyrrolidin-3-yl]-1,2-oxazole-3-carboxamide] the IC50 was 15.7 µM.
`CO[C@H]1CN(C)C[C@@H]1NC(=O)c1cc(C2CC2)on1` (racemic) [compound 122, (±)-trans-5-cyclopropyl-N-(4-methoxy-1-methylpyrrolidin-3-yl)-1,2-oxazole-3-carboxamide] was tested, and the IC50 was greater than 50 µM.
Compound `CO[C@H]1CN(C)C[C@H]1NC(=O)c1cc(C2CC2)on1` (racemic) [compound 123, (±)-cis-5-cyclopropyl-N-(4-methoxy-1-methylpyrrolidin-3-yl)-1,2-oxazole-3-carboxamide] has an IC50 of 49.8 µM.
In the case of `C[C@@H]1CN(Cc2cccnc2)C[C@H]1NC(=O)c1cc(C2CC2)on1` (racemic) [compound 124, (±)-trans-5-cyclopropyl-N-[4-methyl-1-(pyridin-3-ylmethyl)pyrrolidin-3-yl]-1,2-oxazole-3-carboxamide], the IC50 is reported as greater than 50 µM.
Work on `C[C@@H]1CN(Cc2ccccn2)C[C@H]1NC(=O)c1cc(C2CC2)on1` (racemic) [compound 125, (±)-trans-5-cyclopropyl-N-[4-methyl-1-(pyridin-2-ylmethyl)pyrrolidin-3-yl]-1,2-oxazole-3-carboxamide] yielded an IC50 greater than 50 µM.
In the case of `C[C@@H]1CN(CC2CC2)C[C@H]1NC(=O)c1cc(C2CC2)on1` (racemic) [compound 126, (±)-trans-5-cyclopropyl-N-[1-(cyclopropyl-methyl)-4-methyl-pyrrolidin-3-yl]-1,2-oxazole-3-carboxamide], the IC50 is reported as greater than 50 µM.
In the case of `C[C@@H]1CN(CC2CCCOC2)C[C@H]1NC(=O)c1cc(C2CC2)on1` (mixture of isomers) [compound 127, (±)-trans-5-cyclopropyl-N-[4-methyl-1-(oxan-3-ylmethyl)pyrrolidin-3-yl]-1,2-oxazole-3-carboxamide], the IC50 is reported as greater than 50 µM.
In the case of `C[C@@H]1CN(CC(C)(C)C)C[C@H]1NC(=O)c1cc(C2CC2)on1` (racemic) [compound 130, (±)-trans-5-cyclopropyl-N-[(3S,4R)-1-(2,2-dimethylpropyl)-4-methylpyrrolidin-3-yl]-1,2-oxazole-3-carboxamide], the IC50 is reported as greater than 50 µM.
`CCc1nc(C)c(CN2C[C@@H](C)[C@H](NC(=O)c3cc(C4CC4)on3)C2)[nH]1` (racemic) [compound 131, (±)-trans-5-cyclopropyl-N-[1-[(2-ethyl-4-methyl-1H-imidazol-5-yl)methyl]-4-methyl-pyrrolidin-3-yl]-1,2-oxazole-3-carboxamide] was tested, and the IC50 was greater than 50 µM.
`C[C@@H]1CN(CCC2CCN(C(=O)OC(C)(C)C)CC2)C[C@H]1NC(=O)c1cc(C2CC2)on1` (racemic) [compound 132] gave an IC50 greater than 50 µM.
`C[C@@H]1CN(CCC2CCNCC2)C[C@H]1NC(=O)c1cc(C2CC2)on1` (racemic) [compound 133, (±)-trans-5-cyclopropyl-N-[4-methyl-1-[2-(piperidin-4-yl)ethyl]pyrrolidin-3-yl]-1,2-oxazole-3-carboxamide] gave an IC50 greater than 50 µM.
`COc1ccc(CN2C[C@@H](C)[C@H](NC(=O)c3cc(C4CC4)on3)C2)c(OC)c1` (racemic) [compound 134, (±)-trans--cyclopropyl-N-[1-[(2,4-dimethoxy-phenyl)methyl]-4-methylpyrrolidin-3-yl]-1,2-oxazole-3-carboxamide] was tested, and the IC50 was greater than 50 µM.
`C[C@@H]1CN(Cc2cccc3c2OCO3)C[C@H]1NC(=O)c1cc(C2CC2)on1` (racemic) [compound 135, (±)-trans-N-[1-(2H-1,3-benzodioxol-4-ylmethyl)-4-methyl-pyrrolidin-3-yl]-5-cyclopropyl-1,2-oxazole-3-carboxamide] was tested, and the IC50 was greater than 50 µM.
`C[C@@H]1CN(Cc2ccc(Cl)cc2Cl)C[C@H]1NC(=O)c1cc(C2CC2)on1` (racemic) [compound 136, (±)-trans-5-cyclopropyl-N-[1-[(2,4-dichloro-phenyl)methyl]-4-methylpyrrolidin-3-yl]-1,2-oxazole-3-carboxamide] showed an IC50 greater than 50 µM.
In the case of `C[C@@H]1CN(CC2CCOC2)C[C@H]1NC(=O)c1cc(C2CC2)on1` (mixture of isomers) [compound 137, (±)-trans-5-cyclopropyl-N-[4-methyl-1-(oxolan-3-ylmethyl)pyrrolidin-3-yl]-1,2-oxazole-3-carboxamide], the IC50 is reported as greater than 50 µM.
With `CC(C)N1C[C@H](NC(=O)c2cc(C3CC3)on2)[C@@H](C2CC2)C1` (racemic) [compound 138, (±)-trans-5-cyclopropyl-N-[4-cyclopropyl-1-(propan-2-yl)pyrrolidin-3-yl]-1,2-oxazole-3-carboxamide] the IC50 was 48.1 µM.
`C[C@@H]1CN(Cc2ncc[nH]2)C[C@H]1NC(=O)c1cc(C2CC2)on1` (racemic) [compound 139, (±)-trans-5-cyclopropyl-N-[1-(1H-imidazol-2-ylmethyl)-4-methylpyrrolidin-3-yl]-1,2-oxazole-3-carboxamide] gave an IC50 greater than 50 µM.
Compound `C[C@@H]1CN(Cc2ccc(Cl)cc2)C[C@H]1NC(=O)c1cc(C2CC2)on1` (racemic) [compound 140, (±)-trans-N-{1-[(4-chlorophenyl)methyl]-4-methylpyrrolidin-3-yl]-5-cyclopropyl-1,2-oxazole-3-carboxamide] has an IC50 greater than 50 µM.

Same assay, conditions: Table 1; average of n = 1 to n = 50; read-out: SMYD2 Biochem IC50
In the case of `CCc1cc(C(=O)N[C@@H]2CN(C3CC3)C[C@@H]2C)no1` (racemic) [compound 112, (±)-cis-N-(1-cyclopropyl-4-methylpyrrolidin-3-yl)-5-ethyl-isoxazole-3-carboxamide], the IC50 is reported as 9.4 µM.

Same assay, conditions: Table 2; average of n = 1 to n = 50; read-out: SMYD2 Biochem IC50
`C[C@H]1CN(Cc2ccncc2)C[C@H]1NC(=O)c1cc(C2CC2)on1` (racemic) [compound 108, (±)-cis-5-cyclopropyl-N-(4-methyl-1-(pyridin-4-ylmethyl)pyrrolidin-3-yl)isoxazole-3-carboxamide] was tested, and the IC50 was 22.6 µM.
For `C[C@H]1CN(Cc2ccccn2)C[C@H]1NC(=O)c1cc(C2CC2)on1` (racemic) [compound 109, (±)-cis-5-cyclopropyl-N-(4-methyl-1-(pyridin-2-ylmethyl)pyrrolidin-3-yl)isoxazole-3-carboxamide], the IC50 was 31.8 µM.
`CCN1C[C@H](C)[C@H](NC(=O)c2cc(C3CC3)on2)C1` (racemic) [compound 110, (±)-cis-5-cyclopropyl-N-(1-ethyl-4-methylpyrrolidin-3-yl)isoxazole-3-carboxamide] gave an IC50 of 3 µM.
For `CC(=O)N1C[C@H](C)[C@H](NC(=O)c2cc(C3CC3)on2)C1` (racemic) [compound 111, (±)-cis-N-(1-acetyl-4-methylpyrrolidin-3-yl)-5-cyclopropylisoxazole-3-carboxamide], the IC50 was greater than 50 µM.

Reference: US20170253601A1, “Substituted Pyrrolidine Compounds” (EPIZYME, INC., priority 2014, published 2017)
